Assay results as given in the supplement of paper PMC11061612.

Assays:
Assay in all cases: combination Emax (second highest fraction inhibited in the dose matrix, 72 h); higher = more inhibition; extreme values may be limits of the assay
[1] = test system: HSC-4 (Oral Cavity Carcinoma)
Outline: (§1)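 Bliss excess equals the observed combination effect minus the expected value EA + EB − EA·EB, where EA and EB are the effects of each agent alone. Combination Emax is the second-highest inhibition within the matrix. Inhibition was scaled from CellTiter-Glo 2.0 luminescence, with 0 set by vehicle wells and 1 by blank wells, after 72 hours of two-drug dosing of cells plated in 1536-well plates.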

[2] = test system: OVCAR-4 (Ovarian Carcinoma)
Outline: as §1

[3] = test system: Hs-766T (Pancreatic Carcinoma)
Outline: as §1

[4] = test system: LU-65 (Non-Small Cell Lung Carcinoma)
Outline: as §1

[5] = test system: NCI-H358 (Lung Adenocarcinoma)
Outline: as §1

[6] = test system: NCI-H727 (Other Solid Carcinomas)
Outline: as §1

[7] = test system: HGC-27 (Gastric Carcinoma)
Outline: as §1

ACHN (Kidney Carcinoma) = test system: ACHN (Kidney Carcinoma)
Outline: as §1

[8] = test system: OE19 (Esophageal Adenocarcinoma)
Outline: as §1

TK10 (Kidney Carcinoma) = test system: TK10 (Kidney Carcinoma)
Outline: as §1

[9] = test system: OSC-20 (Oral Cavity Carcinoma)
Outline: as §1

[10] = test system: TE-1 (Esophageal Squamous Cell Carcinoma)
Outline: as §1

[11] = test system: NUGC-3 (Gastric Carcinoma)
Outline: as §1

[12] = test system: NCI-H1915 (Non-Small Cell Lung Carcinoma)
Outline: as §1

[13] = test system: Caov-4 (Ovarian Carcinoma)
Outline: as §1

[14] = test system: KYSE-450 (Esophageal Squamous Cell Carcinoma)
Outline: as §1

[15] = test system: AMO-1 (Plasma Cell Myeloma)
Outline: as §1

[16] = test system: SU8686 (Pancreatic Carcinoma)
Outline: as §1

TGW (Neuroblastoma) = test system: TGW (Neuroblastoma)
Outline: as §1

[17] = test system: MLMA (Other Blood Carcinomas)
Outline: as §1

Row | SMILES | combination Emax [1] | combination Emax [2] | combination Emax [3] | combination Emax [4] | combination Emax [5] | combination Emax [6] | combination Emax [7] | combination Emax (ACHN (Kidney Carcinoma)) | combination Emax [8] | combination Emax (TK10 (Kidney Carcinoma)) | combination Emax [9] | combination Emax [10] | combination Emax [11] | combination Emax [12] | combination Emax [13] | combination Emax [14] | combination Emax [15] | combination Emax [16] | combination Emax (TGW (Neuroblastoma)) | combination Emax [17]
1 | Cc1c2c(nn1C)CSCc1cc(n(C)n1)CSc1cc(c3ccccc3c1)OCCCc1c(C(=O)O)n(C)c3c-2c(Cl)ccc13 [AZD5991] + CCN(CCO)CCCOc1ccc2c(Nc3cc(CC(=O)Nc4cccc(F)c4)[nH]n3)ncnc2c1 [AZD2811] (first compound max 1 µM, 7x7, partner max 1 µM) | 0.404 | 0.506 | 0.346 | 0.343 | 0.403 | 0.286 | 1 | 0.27 | 0.937 | 0.228 | 0.438 | 0.676 | 0.391 | 0.294 | 0.743 | 0.54 | 1 | 0.172 | 0.402 | 0.245
2 | Cc1c2c(nn1C)CSCc1cc(n(C)n1)CSc1cc(c3ccccc3c1)OCCCc1c(C(=O)O)n(C)c3c-2c(Cl)ccc13 [AZD5991] + Cn1cnc2c(F)c(Nc3ccc(Br)cc3Cl)c(C(=O)NOCCO)cc21 [Selumetinib] (first compound max 1 µM, 7x7, partner max 3 µM) | 0.278 | 0.376 | 0.595 | 0.716 | 0.485 | 0.65 | 0.306 | 0.4 | 0.49 | 0.454 | 0.276 | 0.655 | 0.355 | 0.568 | 0.856 | 0.331 | 1 | 0.334 | 0.381 | 0.393
3 | COc1cccc(OCCCN)c1-c1cc(Nc2cnc(C#N)cn2)n[nH]1 [Prexasertib] + CN(C)CCCOc1ccc(-c2ccc3ncc4c(c3c2)n(C2CCOCC2)c(=O)n4C)cn1 [AZD0156] (first compound max 1 µM, 7x7, partner max 1 µM) | 0.604 | 0.771 | 0.665 | 0.761 | 0.775 | 0.717 | 0.858 | 0.926 | 0.889 | 0.727 | 0.584 | 0.71 | 0.726 | 0.588 | 0.964 | 0.615 | 0.98 | 0.525 | 0.964 | 0.957
4 | COc1nnc2ccc(N3CCC(c4ccc(OCCN5CCN(C)C(=O)[C@H]5C)cc4)CC3)nn12 [AZD5153] + CC1(C)CCC(CN2CCN(c3ccc(C(=O)NS(=O)(=O)c4ccc(NCC5CCOCC5)c([N+](=O)[O-])c4)c(Oc4cnc5[nH]ccc5c4)c3)CC2)=C(c2ccc(Cl)cc2)C1 [Venetoclax] (first compound max 1 µM, 7x7, partner max 1 µM) | 0.0567 | 0.444 | 0.444 | 0.458 | 0.345 | 0.34 | 0.777 | 0.535 | 0.494 | 0.594 | 0.129 | 0.4 | 0.464 | 0.432 | 0.543 | 0.332 | 0.907 | 0.0794 | 0.798 | 0.912
5 | Cn1cnc2c(F)c(Nc3ccc(Br)cc3Cl)c(C(=O)NOCCO)cc21 [Selumetinib] + C=CCn1c(=O)c2cnc(Nc3ccc(N4CCN(C)CC4)cc3)nc2n1-c1cccc(C(C)(C)O)n1 [AZD1775] (first compound max 10 µM, partner max 1 µM) | 0.427 | 0.546 | 0.487 | 0.908 | 0.621 | 0.614 | 0.536 | 0.863 | 0.28 | 0.478 | 0.27 | 0.638 | 0.639 | 0.846 | 0.764 | 0.499 | 0.917 | 0.126 | 0.566 | 0.769
6 | Cc1c2c(nn1C)CSCc1cc(n(C)n1)CSc1cc(c3ccccc3c1)OCCCc1c(C(=O)O)n(C)c3c-2c(Cl)ccc13 [AZD5991] + C[C@@H]1COCCN1C2=NC(=NC(=C2)C3(CC3)[S@](=N)(=O)C)C4=C5C=CNC5=NC=C4 [AZD6738] (first compound max 1 µM, 7x7, partner max 10 µM) | 0.678 | 0.713 | 0.574 | 0.675 | 0.632 | 0.412 | 0.849 | 0.948 | 0.746 | 0.522 | 0.406 | 0.747 | 0.69 | 0.504 | 0.914 | 0.55 | 1 | 0.353 | 0.714 | 0.697
7 | NC1(C(=O)N[C@@H](CCO)c2ccc(Cl)cc2)CCN(c2ncnc3[nH]ccc23)CC1 [Capivasertib] + C[C@@H]1COCCN1C2=NC(=NC(=C2)C3(CC3)[S@](=N)(=O)C)C4=C5C=CNC5=NC=C4 [AZD6738] (first compound max 10 µM, 7x7, partner max 10 µM) | 0.73 | 0.707 | 0.437 | 0.632 | 0.554 | 0.58 | 0.923 | 0.856 | 0.698 | 0.605 | 0.431 | 0.449 | 0.74 | 0.531 | 0.825 | 0.452 | 0.903 | 0.166 | 0.614 | 0.771
8 | Cn1cnc2c(F)c(Nc3ccc(Br)cc3Cl)c(C(=O)NOCCO)cc21 [Selumetinib] + CC(C)n1c(=O)n(C)c2cnc3cc(F)c(-c4ccc(OCCCN5CCCCC5)nc4)cc3c21 [AZD1390] (first compound max 10 µM, 7x7, partner max 0.3 µM) | 0.132 | 0.126 | 0.475 | 0.598 | 0.444 | 0.614 | 0.171 | 0.305 | 0.128 | 0.325 | 0.12 | 0.384 | 0.328 | 0.641 | 0.492 | 0.0763 | 0.364 | 0.163 | 0.0418 | 0.23
9 | COc1cccc(OCCCN)c1-c1cc(Nc2cnc(C#N)cn2)n[nH]1 [Prexasertib] + C[C@@H]1COCCN1C2=NC(=NC(=C2)C3(CC3)[S@](=N)(=O)C)C4=C5C=CNC5=NC=C4 [AZD6738] (first compound max 1 µM, 7x7, partner max 10 µM) | 0.666 | 0.832 | 0.658 | 0.795 | 0.825 | 0.72 | 0.895 | 0.928 | 0.935 | 0.686 | 0.575 | 0.641 | 0.762 | 0.612 | 0.965 | 0.651 | 0.965 | 0.531 | 0.968 | 0.954
10 | COc1nnc2ccc(N3CCC(c4ccc(OCCN5CCN(C)C(=O)[C@H]5C)cc4)CC3)nn12 [AZD5153] + CCN(CCO)CCCOc1ccc2c(Nc3cc(CC(=O)Nc4cccc(F)c4)[nH]n3)ncnc2c1 [AZD2811] (first compound max 1 µM, 7x7, partner max 1 µM) | 0.292 | 0.467 | 0.416 | 0.494 | 0.352 | 0.404 | 0.82 | 0.562 | 0.693 | 0.564 | 0.261 | 0.49 | 0.579 | 0.486 | 0.597 | 0.358 | 0.912 | 0.0898 | 0.501 | 0.915
11 | CCN(CCO)CCCOc1ccc2c(Nc3cc(CC(=O)Nc4cccc(F)c4)[nH]n3)ncnc2c1 [AZD2811] + O=C(c1cc(Cc2n[nH]c(=O)c3ccccc23)ccc1F)N1CCN(C(=O)C2CC2)CC1 [Olaparib] (first compound max 1 µM, 7x7, partner max 10 µM) | 0.245 | 0.227 | 0.186 | 0.265 | 0.184 | 0.346 | 0.915 | 0.211 | 0.714 | 0.189 | 0.382 | 0.105 | 0.274 | 0.312 | 0.19 | 0.33 | 0.354 | 0.145 | 0.532 | 0.223
12 | CCN(CCO)CCCOc1ccc2c(Nc3cc(CC(=O)Nc4cccc(F)c4)[nH]n3)ncnc2c1 [AZD2811] + C[C@@H]1COCCN1C2=NC(=NC(=C2)C3(CC3)[S@](=N)(=O)C)C4=C5C=CNC5=NC=C4 [AZD6738] (first compound max 1 µM, 7x7, partner max 10 µM) | 0.677 | 0.688 | 0.547 | 0.668 | 0.55 | 0.559 | 0.802 | 0.905 | 0.864 | 0.602 | 0.449 | 0.449 | 0.697 | 0.325 | 0.784 | 0.63 | 0.859 | 0.248 | 0.706 | 0.684
13 | C=CCn1c(=O)c2cnc(Nc3ccc(N4CCN(C)CC4)cc3)nc2n1-c1cccc(C(C)(C)O)n1 [AZD1775] + C[C@@H]1COCCN1C2=NC(=NC(=C2)C3(CC3)[S@](=N)(=O)C)C4=C5C=CNC5=NC=C4 [AZD6738] (first compound max 1 µM, partner max 10 µM) | 0.662 | 0.843 | 0.643 | 0.884 | 0.732 | 0.654 | 0.966 | 0.964 | 0.918 | 0.698 | 0.401 | 0.654 | 0.834 | 0.658 | 0.902 | 0.946 | 0.922 | 0.384 | 0.97 | 0.935
